Data on three molecules can be found in ChEMBL document CHEMBL1201862, “PubChem BioAssay data set” (2004).

The target of assay [1] is T1, CAAX prenyl protease 1 (Saccharomyces cerevisiae S288c, UniProt P47154).
T1 sequence (P47154 whole entry): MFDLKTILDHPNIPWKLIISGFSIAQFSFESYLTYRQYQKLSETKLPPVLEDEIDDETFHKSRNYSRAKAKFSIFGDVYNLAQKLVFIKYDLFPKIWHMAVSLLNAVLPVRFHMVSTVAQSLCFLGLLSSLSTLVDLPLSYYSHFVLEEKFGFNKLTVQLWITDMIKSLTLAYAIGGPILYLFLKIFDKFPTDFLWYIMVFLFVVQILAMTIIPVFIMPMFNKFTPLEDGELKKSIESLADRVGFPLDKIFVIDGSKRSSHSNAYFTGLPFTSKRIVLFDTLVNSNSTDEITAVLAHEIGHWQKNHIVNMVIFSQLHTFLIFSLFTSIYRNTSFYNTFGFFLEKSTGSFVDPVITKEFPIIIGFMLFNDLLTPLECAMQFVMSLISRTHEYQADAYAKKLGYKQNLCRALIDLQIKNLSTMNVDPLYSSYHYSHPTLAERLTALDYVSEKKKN
Kind of assay: yeast CAAX protease Ste24 inhibition – biochemical, S. cerevisiae, plate reader, cherry-pick, dose response (AID 488815).

Assay [2] in a line: viability of HCT116 lacking mutant beta-catenin – cell-based, human colon tumor, dose response (AID 1045).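 Note: HCT116 colon tumor cells with beta catenin knocked out; cells exposed to compound for 60 hours.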 In kind it is functional.
Assay [3] in a line: fluconazole-exposed Candida albicans growth modulators – fluorescence, retest, confirmation (AID 2467). In kind it is functional, cell-based.
In assay [4] the target is T2, DNA repair and recombination protein RAD54-like (Homo sapiens, UniProt Q92698).
T2 sequence (Q92698 whole entry): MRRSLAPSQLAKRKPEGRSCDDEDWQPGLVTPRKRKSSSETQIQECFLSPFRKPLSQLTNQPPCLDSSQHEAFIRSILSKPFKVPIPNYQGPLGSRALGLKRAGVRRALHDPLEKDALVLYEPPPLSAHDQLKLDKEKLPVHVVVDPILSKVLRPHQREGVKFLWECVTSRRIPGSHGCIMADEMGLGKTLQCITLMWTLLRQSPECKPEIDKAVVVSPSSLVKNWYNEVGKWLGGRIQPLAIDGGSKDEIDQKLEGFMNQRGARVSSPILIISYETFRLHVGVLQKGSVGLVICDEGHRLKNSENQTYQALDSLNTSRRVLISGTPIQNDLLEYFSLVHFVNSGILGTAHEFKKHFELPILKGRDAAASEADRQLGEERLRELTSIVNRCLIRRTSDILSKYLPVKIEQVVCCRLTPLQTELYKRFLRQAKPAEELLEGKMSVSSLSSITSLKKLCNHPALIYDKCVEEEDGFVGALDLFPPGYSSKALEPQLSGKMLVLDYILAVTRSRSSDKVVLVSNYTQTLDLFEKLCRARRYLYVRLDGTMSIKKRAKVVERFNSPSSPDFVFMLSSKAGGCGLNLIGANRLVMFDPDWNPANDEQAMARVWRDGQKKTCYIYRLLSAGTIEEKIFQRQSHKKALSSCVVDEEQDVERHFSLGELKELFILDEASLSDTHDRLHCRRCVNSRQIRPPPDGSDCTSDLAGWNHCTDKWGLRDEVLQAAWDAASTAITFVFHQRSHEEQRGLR
Kind of assay: RAD54 Holliday junction migration blockers – biochemical, fluorescence, cherry-picked samples, dose series, confirmation (AID 651657). In kind it is functional.

Assay [5] is described as follows: NIH-3T3 fibroblast cytotoxicity, dose response, cytotoxicity control, cell-based, fluorescence, Alamar Blue, secondary assay (AID 2327).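 Note: NIH-3T3 mouse fibroblasts cultured with fluconazole at 8 µg/mL.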 In kind it is functional. (Alamar Blue is a resazurin reagent that responds to reducing activity.)
Assay [6] is described as follows: Trypanosoma cruzi growth suppression in host cells – NIH3T3 host cells, beta-gal luminescence, confirmation (AID 2044).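 Note: intracellular parasites grown in NIH/3T3 mouse fibroblasts as host cells; luminescent beta-galactosidase reporter signal from transgenic T. cruzi replicating inside host cells; inhibitors lower the luminescence signal.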 It counts as functional, cell-based.
Assay [7] in a line: viability of PTEN-deleted HCT116 cells – cell-based, HCT116 PTEN knockout, dose response (AID 1047).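 Note: HCT116 colon tumor cells with PTEN knocked out; cells exposed to compound for 60 hours before readout; potency for loss of cell viability measured by luminescence.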 It counts as functional.
The nature of assay [8]: NIH3T3 cell viability loss – ATP luminescence, mouse fibroblasts, counter-screen, dose response (AID 2010).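 Note: cells exposed to compound for about 90 hours before reading.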 In kind it is functional, cell-based. Background: A counterscreen serves to expose hits that act by an unwanted route or on another target.
Assay [9] in a line: Counterscreen for AddAB inhibitors: absorbance-based bacterial cell-based high throughput dose response assay for inhibitors of bacterial viability. [Related pubchem assays (depositor defined):AID435030, AID449728, AID449731, AID488942, AID488955, AID488956]. In kind it is functional.
The target of assay [10] is T3, Exodeoxyribonuclease V (Escherichia coli (strain K12), UniProt P04993+P07648+P08394).
T3 sequence (P04993 whole entry): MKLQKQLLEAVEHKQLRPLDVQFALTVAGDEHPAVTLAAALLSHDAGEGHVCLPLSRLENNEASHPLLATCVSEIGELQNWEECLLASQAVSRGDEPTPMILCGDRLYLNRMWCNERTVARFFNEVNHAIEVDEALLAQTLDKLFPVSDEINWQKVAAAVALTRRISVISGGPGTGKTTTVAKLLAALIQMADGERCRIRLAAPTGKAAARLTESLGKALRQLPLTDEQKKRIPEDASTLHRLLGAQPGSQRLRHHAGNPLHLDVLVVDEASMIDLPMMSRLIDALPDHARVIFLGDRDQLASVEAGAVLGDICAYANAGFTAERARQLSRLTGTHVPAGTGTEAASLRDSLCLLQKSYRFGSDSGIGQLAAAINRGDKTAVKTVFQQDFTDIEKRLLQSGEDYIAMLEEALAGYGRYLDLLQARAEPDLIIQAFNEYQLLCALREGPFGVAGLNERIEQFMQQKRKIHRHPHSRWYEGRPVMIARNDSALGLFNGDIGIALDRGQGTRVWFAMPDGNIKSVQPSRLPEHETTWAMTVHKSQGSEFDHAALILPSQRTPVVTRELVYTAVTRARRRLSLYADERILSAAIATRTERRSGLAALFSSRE
T3 sequence (P07648 whole entry): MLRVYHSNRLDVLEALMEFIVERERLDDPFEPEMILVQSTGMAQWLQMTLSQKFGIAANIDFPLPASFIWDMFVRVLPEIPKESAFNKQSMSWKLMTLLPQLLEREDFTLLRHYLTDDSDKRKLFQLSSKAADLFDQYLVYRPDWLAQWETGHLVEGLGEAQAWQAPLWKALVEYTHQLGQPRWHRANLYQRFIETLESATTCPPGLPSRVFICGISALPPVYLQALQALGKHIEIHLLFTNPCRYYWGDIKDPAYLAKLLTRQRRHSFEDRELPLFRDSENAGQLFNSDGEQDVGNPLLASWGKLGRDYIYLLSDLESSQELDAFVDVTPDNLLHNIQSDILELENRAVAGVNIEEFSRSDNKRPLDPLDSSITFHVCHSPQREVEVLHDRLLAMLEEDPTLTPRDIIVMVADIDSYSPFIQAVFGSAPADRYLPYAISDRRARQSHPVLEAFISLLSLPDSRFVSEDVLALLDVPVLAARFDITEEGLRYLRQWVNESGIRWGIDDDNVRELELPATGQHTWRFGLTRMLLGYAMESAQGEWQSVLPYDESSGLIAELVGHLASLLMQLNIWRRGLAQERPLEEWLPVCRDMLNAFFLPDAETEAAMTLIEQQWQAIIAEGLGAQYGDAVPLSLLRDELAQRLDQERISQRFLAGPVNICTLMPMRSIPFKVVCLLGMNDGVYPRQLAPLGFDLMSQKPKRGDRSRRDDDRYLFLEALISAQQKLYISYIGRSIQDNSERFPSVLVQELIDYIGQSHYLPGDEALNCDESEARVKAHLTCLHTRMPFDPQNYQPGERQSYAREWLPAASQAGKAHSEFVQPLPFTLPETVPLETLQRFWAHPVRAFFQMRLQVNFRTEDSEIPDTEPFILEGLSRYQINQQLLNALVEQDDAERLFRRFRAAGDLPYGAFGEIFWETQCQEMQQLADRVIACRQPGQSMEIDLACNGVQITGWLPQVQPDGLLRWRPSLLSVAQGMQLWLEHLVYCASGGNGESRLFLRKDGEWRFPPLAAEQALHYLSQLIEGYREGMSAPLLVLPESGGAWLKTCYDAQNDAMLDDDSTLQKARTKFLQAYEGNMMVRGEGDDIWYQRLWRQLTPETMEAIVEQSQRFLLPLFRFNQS
T3 sequence (P08394 whole entry): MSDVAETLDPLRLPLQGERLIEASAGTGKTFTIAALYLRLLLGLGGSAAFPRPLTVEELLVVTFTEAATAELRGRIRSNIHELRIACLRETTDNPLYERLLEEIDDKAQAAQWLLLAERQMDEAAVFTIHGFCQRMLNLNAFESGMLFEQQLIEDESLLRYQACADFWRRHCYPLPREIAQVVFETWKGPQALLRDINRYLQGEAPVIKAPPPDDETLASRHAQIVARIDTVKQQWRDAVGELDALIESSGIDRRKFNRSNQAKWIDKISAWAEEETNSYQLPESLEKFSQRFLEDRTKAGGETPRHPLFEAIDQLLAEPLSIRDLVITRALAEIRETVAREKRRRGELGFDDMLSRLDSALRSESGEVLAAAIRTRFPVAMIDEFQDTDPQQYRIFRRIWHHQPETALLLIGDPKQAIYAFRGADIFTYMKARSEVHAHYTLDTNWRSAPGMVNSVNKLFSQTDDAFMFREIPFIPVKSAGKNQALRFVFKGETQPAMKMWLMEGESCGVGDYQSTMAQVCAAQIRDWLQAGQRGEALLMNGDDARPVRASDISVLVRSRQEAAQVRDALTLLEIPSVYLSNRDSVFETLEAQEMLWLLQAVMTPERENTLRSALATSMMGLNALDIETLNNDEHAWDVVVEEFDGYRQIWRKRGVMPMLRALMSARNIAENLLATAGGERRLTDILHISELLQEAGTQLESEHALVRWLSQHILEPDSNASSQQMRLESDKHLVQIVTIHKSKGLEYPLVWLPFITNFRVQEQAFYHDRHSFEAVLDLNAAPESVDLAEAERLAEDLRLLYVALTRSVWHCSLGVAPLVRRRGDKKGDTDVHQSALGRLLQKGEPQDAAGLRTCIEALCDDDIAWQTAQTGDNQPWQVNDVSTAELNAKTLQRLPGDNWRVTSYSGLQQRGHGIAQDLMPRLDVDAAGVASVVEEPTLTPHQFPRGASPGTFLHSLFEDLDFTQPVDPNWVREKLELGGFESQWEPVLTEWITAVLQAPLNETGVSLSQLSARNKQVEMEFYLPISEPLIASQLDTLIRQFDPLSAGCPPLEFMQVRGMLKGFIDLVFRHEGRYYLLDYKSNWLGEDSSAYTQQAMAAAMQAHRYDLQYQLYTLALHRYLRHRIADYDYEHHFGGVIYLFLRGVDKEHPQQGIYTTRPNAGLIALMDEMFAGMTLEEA
Put plainly: RecBCD inhibition via phage-restricted bacterial growth – absorbance, V66 E. coli, mutant T4 phage, counter-screen for AddAB inhibitor project, dose response (AID 492957). In kind it is functional, cell-based, Escherichia coli str. K-12 substr. MG1655.

Assay [11] has as its target Heat shock protein HSP 90-alpha (Homo sapiens, UniProt P07900). It counts as functional, organism-based.
The nature of assay [12]: loss of viability in HepG2 cells – cell-based, CellTiter-Glo, cherry-picked, cytotoxicity control for Shn3 inhibitor project, dose response (AID 624134). It counts as functional. On the technique in general: Cellular ATP, detected with luciferase, serves as a proxy for viable cell number.
The nature of assay [13]: cells. In kind it is functional, cell-based.
Assay [14] can be described thus: cells. It counts as functional, cell-based. This is another data set of the same source.
For assay [15], the system named is HEK293. Put plainly: EBV LMP1 TES2 canonical NF-kB signalling blockers – cell-based, HEK293, luciferase, cherry-pick, dose response (AID 588343). As to conditions: Homo sapiens. In kind it is functional.
The nature of assay [16]: non-specific 3'UTR reporter inhibition in Clone20-Shn3RL – cell-based, Renilla luciferase, cherry-picked, counter-screen for Shn3 inhibitor project, dose response (AID 624133). In kind it is functional.
Assay [17] concerns INS1. Put plainly: INS-1E survival protection against cytokine death – cell-based, luminescence, retest, dose response (AID 449756).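 Note: cell death triggered by IL-1 beta plus TNF-alpha plus IFN-gamma mixture; protective hits raise ATP signal compared with cytokine alone wells.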 In kind it is functional. As to conditions: Rattus norvegicus.
Assay [18] can be described thus: reduction of Shn3 3'UTR-driven luciferase in osteoblasts – cell-based, Clone20 osteoblasts, firefly luciferase, cherry-picked, dose response (AID 624132).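 Note: firefly luciferase luminescence from reporter carrying the Shn3 3'UTR in osteoblasts.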 It counts as functional.

Active and inactive are the calls of the source. A value given as a limit tells only on which side of the number the result lay.

In the case of `CCc1nc(Nc2ccncc2)c2oc3ccccc3c2n1`, the half-maximal activity concentration (AC50) (in general, the concentration giving half of the maximal activity seen) in assay [1] is 5.23 µM (active); in assay [4], 15.5 µM (active). Further, the EC50 (in general, the midpoint of the concentration-response curve) was 6.45 µM (active) in [2]; 2.48 µM (active) in assay [3]; > 160 µM (inactive) in assay [5]; 0.6 µM (active) in assay [6]; 6.58 µM (active) in [7]; > 60 µM (not active) in [8].

On to `COc1ccccc1/C=C1\SC(=S)N(CCC(=O)NNC(=O)c2ccccc2O)C1=O`, for which the IC50 in [9] and in [10] was > 119 µM (inactive) each time.

Turning to `CCC(=O)NC(c1ccc(Cl)cc1Cl)c1ccc2cccnc2c1O` (centres undefined), the AC50 was 3.22 µM (active) in assay [11]; 28.8 µM (active) in [12]; 4.55 µM (active) in assay [15]; 1.33 µM (active) in [16]; 0.478 µM (active) in assay [17]; 1.19 µM (active) in [18]. Also, the 50% effective concentration (EC50) in assay [13] was > 350 µM (not active); in assay [3] it was 0.354 µM (active); in assay [5] it was 3.86 µM (inconclusive); in [6], 0.296 µM (active); in assay [14], 7.3 µM (active); in assay [8], 0.434 µM (active). Also, the IC50 in assay [9] and in assay [10] was > 119 µM (inactive) throughout.
